These results are taken from the supplement of paper PMC11208160.

This series is described as follows: recombinant barcode read abundance after kanamycin selection (control-corrected) (log10(CPM+1)); higher = more efficient recombination; sequences stand for … in AGTGCAGAGAAAATCGGCCAGTTTTCTCTGCCTGCAGTCCGCATGCCGT…AGATTTATGCAGCGGACTGCCTTTCTCCCAAAGTGATAAACCGGACAGTATCATGGACCGGTTTTCCCGGTAATCCGTATTTGCAAGGTTGGTTTCACT; site = the 11-nt target. The gist of the method:
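A vector carrying a T7-inducible recombinase and the last 73 bp of the bridge RNA received, by Gibson cloning, oligos encoding a promoter, target, barcode and the first 104 bridge RNA bases under J23119. The pooled constructs entered E. coli together with a donor plasmid by electroporation. Selection used chloramphenicol/ampicillin/kanamycin with 0.1 mM IPTG, with chloramphenicol/ampicillin LB agar as the control, each in two replicates. Recombination efficiency is the averaged, control-corrected counts-per-million of barcodes at recombinant junctions, reported as log10(CPM+1).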
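Also: IS621 recombinase and bridge RNA in Escherichia coli cells.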

Take “TCCAAGGCTTGGGTTCTAACCTGTTGCCT (site TCGAAGGCTAG)”: the “recombinant barcode read abundance (log10)” value came out at 0.147.
Next, “TCCAAGGCTTGGGTTCTAACCTGTTGCCT (site TCTAAGGCTAG)”: 1.48; “TCCACAACTTGGGTTCTAACCTGTTGCCT (site TCCACAACTAG)”: 0.273; “TCCACAACTTGGGTTCTAACCTGTTGCCT (site TCCACACCTAG)”: 0.122.
With “TCCACAACTTGGGTTCTAACCTGTTGCCT (site TCCACAGCTAG)” the figure was 0.283; with “TCCACAACTTGGGTTCTAACCTGTTGCCT (site TCCACATCTAG)”, 0.193; with “TCCACATCTTGGGTTCTAACCTGTTGCCT (site TCCACAACTAG)”, 0.0262.
Turning to “TCCACATCTTGGGTTCTAACCTGTTGCCT (site TCCACACCTAG)”, the “recombinant barcode read abundance (log10)” value was 0.793.
Consider “TCCACATCTTGGGTTCTAACCTGTTGCCT (site TCCACAGCTAG)”, for which the “recombinant barcode read abundance (log10)” value was 0.00992.
Consider “TCCACATCTTGGGTTCTAACCTGTTGCCT (site TCCACATCTAG)”, for which the “recombinant barcode read abundance (log10)” value worked out at 0.477.
As for “TCCATCCCTTGGGTTCTAACCTGTTGCTA (site TCCAGTCCTTA)”, the “recombinant barcode read abundance (log10)” value turned out to be 0.0637.
With “TCCATCCCTTGGGTTCTAACCTGTTGCTA (site TCCATCCCTTA)” the figure was 0.605.
Next, “TCCCAGTCTTGGGTTCTAACCTGTTGCAT (site TCCCAGTCTAA)”: 0.542.
Next, “TCCCAGTCTTGGGTTCTAACCTGTTGCAT (site TCCCAGTCTAC)”: 0.104.
Regarding “TCCCAGTCTTGGGTTCTAACCTGTTGCAT (site TCCCAGTCTAG)”, the “recombinant barcode read abundance (log10)” value is 0.242.
Next, “TCCCAGTCTTGGGTTCTAACCTGTTGCAT (site TCCCAGTCTAT)”: 1.88; “TCCCAGTCTTGGGTTCTAACCTGTTGCCT (site TCCCAGTCTAA)”: 0.0986; “TCCCAGTCTTGGGTTCTAACCTGTTGCCT (site TCCCAGTCTAC)”: 0.889.
With “TCCCAGTCTTGGGTTCTAACCTGTTGCCT (site TCCCAGTCTAG)” the figure was 1.82.
Next, “TCCCAGTCTTGGGTTCTAACCTGTTGCCT (site TCCCAGTCTAT)”: 0.594; “TCCCAGTCTTGGGTTCTAACCTGTTGCGT (site TCCCAGTCTAA)”: 0.433; “TCCCAGTCTTGGGTTCTAACCTGTTGCGT (site TCCCAGTCTAC)”: 2.59.
Take “TCCCAGTCTTGGGTTCTAACCTGTTGCGT (site TCCCAGTCTAG)”: the “recombinant barcode read abundance (log10)” value stood at 0.375.
Next, “TCCCAGTCTTGGGTTCTAACCTGTTGCGT (site TCCCAGTCTAT)”: 1.6; “TCCCAGTCTTGGGTTCTAACCTGTTGCTT (site TCCCAGTCTAA)”: 0.681; “TCCCAGTCTTGGGTTCTAACCTGTTGCTT (site TCCCAGTCTAC)”: 0.0373.
Take “TCCCAGTCTTGGGTTCTAACCTGTTGCTT (site TCCCAGTCTAG)”: the “recombinant barcode read abundance (log10)” value was determined as 0.684.
Next, “TCCCAGTCTTGGGTTCTAACCTGTTGCTT (site TCCCAGTCTAT)”: 1.19; “TCCCATACTTGGGTTCTAACCTGTTGCCT (site TCCCATACTAG)”: 0.493; “TCCCATACTTGGGTTCTAACCTGTTGCCT (site TCCCATCCTAG)”: 0.33.
Turning to “TCCCATACTTGGGTTCTAACCTGTTGCCT (site TCCCATGCTAG)”, the “recombinant barcode read abundance (log10)” value turned out to be 0.109.
As to “TCCCATACTTGGGTTCTAACCTGTTGCCT (site TCCCATTCTAG)”, the “recombinant barcode read abundance (log10)” value stood at 0.0766.
Regarding “TCCCCGGCTTGGGTTCTAACCTGTTGCCT (site TACCCGCCTAG)”, the “recombinant barcode read abundance (log10)” value amounted to 0.0487.
With “TCCCCGGCTTGGGTTCTAACCTGTTGCCT (site TCCCCGGCTAG)” the figure was 0.285.
With “TCCCGAACTTGGGTTCTAACCTGTTGCCT (site TCCCGAACTAG)” the figure was 0.598; with “TCCCGAACTTGGGTTCTAACCTGTTGCCT (site TCCCGACCTAG)”, 0.337; with “TCCCGAACTTGGGTTCTAACCTGTTGCCT (site TCCCGAGCTAG)”, 0.173.
With “TCCCGAACTTGGGTTCTAACCTGTTGCCT (site TCCCGATCTAG)” the figure was 0.0125; with “TCCCGTCCTTGGGTTCTAACCTGTTGCCT (site TCCCGTCCTAG)”, 0.636.
Take “TCCCGTCCTTGGGTTCTAACCTGTTGCCT (site TCCCTTCCTAG)”: the “recombinant barcode read abundance (log10)” value turned out to be 0.196.
With “TCCGACACTTGGGTTCTAACCTGTTGCCT (site TACGACACTAG)” the figure was 0.227.
With “TCCGACACTTGGGTTCTAACCTGTTGCCT (site TCCGACACTAG)” the figure was 1.95.
Next, “TCCGAGACTTGGGTTCTAACCTGTTGCGT (site TCCGAGACTAC)”: 1.56; “TCCGAGACTTGGGTTCTAACCTGTTGCGT (site TTCGAAACTAC)”: 0.226; “TCCGAGCCTTGGGTTCTAACCTGTTGCGT (site TCCGAGCCTAC)”: 2.18.
On to “TCCGAGCCTTGGGTTCTAACCTGTTGCGT (site TCCGAGCCTAT)”, for which the “recombinant barcode read abundance (log10)” value was found to be 1.03.
With “TCCGAGGCTTGGGTTCTAACCTGTTGCTG (site TCAGAGGCTCA)” the figure was 0.266; with “TCCGAGGCTTGGGTTCTAACCTGTTGCTG (site TCCGAGGCTCA)”, 0.739.
As for “TCCGAGGCTTGGGTTCTAACCTGTTGCTG (site TCGGAGGCTCA)”, the “recombinant barcode read abundance (log10)” value came out at 0.521.
With “TCCGAGGCTTGGGTTCTAACCTGTTGCTG (site TCTGAGGCTCA)”, the “recombinant barcode read abundance (log10)” value is 0.241.
With “TCCGATACTTGGGTTCTAACCTGTTGCGT (site GTGTGGCCTTG)” the figure was 0.11; with “TCCGATACTTGGGTTCTAACCTGTTGCGT (site TCCGATACTAC)”, 1.64.
Consider “TCCGGCGCTTGGGTTCTAACCTGTTGCGG (site CTTACTACTTG)”, for which the “recombinant barcode read abundance (log10)” value came out at 0.0112.
As to “TCCGGCGCTTGGGTTCTAACCTGTTGCGG (site TCCGGCGCTCC)”, the “recombinant barcode read abundance (log10)” value is 1.75.
With “TCCGTATCTTGGGTTCTAACCTGTTGCAG (site GAGTGGCCTTC)” the figure was 0.16; with “TCCGTATCTTGGGTTCTAACCTGTTGCAG (site TCCGTATCTCT)”, 1.05; with “TCCGTCCCTTGGGTTCTAACCTGTTGCAT (site TCCGACCCTGT)”, 0.0832.
Next, “TCCGTCCCTTGGGTTCTAACCTGTTGCAT (site TCCGTCCCTAT)”: 1.4; “TCCGTGACTTGGGTTCTAACCTGTTGCCT (site TCCGTGACTAG)”: 2.07; “TCCGTGACTTGGGTTCTAACCTGTTGCCT (site TCCGTGCCTAG)”: 0.
Next, “TCCGTGACTTGGGTTCTAACCTGTTGCCT (site TCCGTGGCTAG)”: 0.436.
“TCCGTGACTTGGGTTCTAACCTGTTGCCT (site TCCGTGTCTAG)”: the “recombinant barcode read abundance (log10)” value turned out to be 0.352.
Take “TCCTAACCTTGGGTTCTAACCTGTTGCTG (site ACCTAACCTCT)”: the “recombinant barcode read abundance (log10)” value was 0.0586.
With “TCCTAACCTTGGGTTCTAACCTGTTGCTG (site TCCTAACCTCA)” the figure was 1.37; with “TCCTAATCTTGGGTTCTAACCTGTTGCAT (site TCCTAACCTAG)”, 0.0364; with “TCCTAATCTTGGGTTCTAACCTGTTGCAT (site TCCTAATCTAT)”, 0.607.
Next, “TCCTACCCTTGGGTTCTAACCTGTTGCCT (site TACTACCCTAG)”: 0.0977; “TCCTACCCTTGGGTTCTAACCTGTTGCCT (site TCCTACCCTAG)”: 1.36.
Next, “TCCTACCCTTGGGTTCTAACCTGTTGCCT (site TGCTACCCTAG)”: 0.052.
As for “TCCTACCCTTGGGTTCTAACCTGTTGCCT (site TTCTACCCTAG)”, the “recombinant barcode read abundance (log10)” value was 0.271.
For “TCCTACTCTTGGGTTCTAACCTGTTGCCG (site TCCGACTCTCG)”, the “recombinant barcode read abundance (log10)” value is 0.0792.
With “TCCTACTCTTGGGTTCTAACCTGTTGCCG (site TCCTACTCTCG)” the figure was 0.688; with “TCCTAGACTTGGGTTCTAACCTGTTGCGG (site TCCTAGACTCC)”, 1.53; with “TCCTAGACTTGGGTTCTAACCTGTTGCGG (site TTCTAGACTCC)”, 0.117.
With “TCCTAGGCTTGGGTTCTAACCTGTTGCGC (site TCCTAGGCTGC)” the figure was 1.72; with “TCCTAGGCTTGGGTTCTAACCTGTTGCGC (site TCTTAGGCTAC)”, 0.161.
For “TCCTATGCTTGGGTTCTAACCTGTTGCTA (site CAAGTGACTAG)”, the “recombinant barcode read abundance (log10)” value came to 0.0648.
